# According to patent US8481459B2, “Chemical inhibitors of ethylene biosynthesis” (Academia Sinica, priority 2010, dated 2013):
# Test system: gene expression in etiolated eto1-4 seedlings
# Test: Transcriptional profiling (ATH1 GeneChip microarray) of etiolated eto1-4 seedlings
# Format: in vivo, Arabidopsis thaliana
# Conditions: ratio eto1-4 treated to eto1-4 (no treatment)
# Method: For chemical treatments, seeds were sown on 0.5×MS agar medium supplemented with 10 μM chemicals (AVG, compounds 9393, 9370, and 7303) or DMSO (as control). Arabidopsis seeds were stratified in the dark at 4° C. for 4 days, then germinated in the dark for 3 days at 22° C. Approximately 2,000 etiolated seedlings of the wild type or eto1-4 were used to collect tissues for preparation of total RNA in each microarray experiment with Arabidopsis ATH1 GeneChip (Affymetrix). Extraction of RNA followed an established protocol (Chang, et al. (1993) Plant Mol. Biol. Rep. 11, 113-117). Total RNA (10 μg) was used to prepare biotinylated cRNA for hybridization to ATH1 GeneChip in the experiments disclosed herein. Experiments were repeated by 2 independent biological duplicates, and candidate genes present in both experiments were selected for further analysis. The MASS method was used for data analysis and normalization by all sample medium. Candidate genes were selected by the following criteria. First, genes with 1.5-fold differential expression between the wild type and eto1-4 were selected as the master gene pool, which was then used for comparison in treatments with AVG and individual exemplary compounds. Data were presented in hierarchical clustering and Venn diagram format. Agilent GeneSpring GX and Bioconductor software were used to analyze the expression profile data. Gene Ontology descriptions were generated by GeneSpring GX and further referred to the TAR GO database. Raw data are available in the GEO database (http://www.ncbi.nlm.nih.gov/geo) with Accession no. GSE20897.
# The filtered and normalized expression data set from 22810 probes on the ATH1 Genechip was used for hierarchical clustering of gene expression profiles for comparison between AVG and the exemplary invention compounds in eto1-4. It was identified that 1,446 genes show at least 1.5-fold difference in expression between the WT and eto1-4 and used them as the master gene pool for clustering analysis (FIG. 7A). […] These genes likely contribute to the etiolated phenotype of eto1-4 by responding to elevated endogenous ethylene. To determine whether the exemplary compounds have specific r overlapping functions with AVG to suppress the eto1-4 phenotype, genes that are regulated by individual exemplary invention compounds and AVG for Venn diagram analysis were clustered (FIG. 7B). More than 63% of genes (356/561 for compound 9393; 389/561 for compound 9370; 399/561 for compound 7303; FIG. 7B) with expression associated with AVG were co-regulated by the exemplary invention compounds, which indicates an overlap function in suppression of the ethylene phenotype in eto1-4. […] Next genes co-regulated by all of the exemplary invention compounds and AVG were examined by performing a clustering analysis using the co-regulated genes identified in FIG. 7B: 356 (compound 9393 vs AVG), 389 (compound 9370 vs AVG) and 399 genes (compound 7303 vs AVG). It was uncovered that 276 genes were co-regulated by all of the exemplary invention compounds and AVG (FIG. 7C and Table 2). On the basis of GO descriptions generated by Gene Spring GX and TAIR database, the 276 genes were divided into subgroups related to their biological functions (Table 2). […] In addition, stress- and pathogenesis-related genes were among the co-regulated genes, possibly because ethylene is involved in both biotic and abiotic stresses.
# Genes (1446 non-redundant loci) were selected by 1.5-fold differential expression between eto1-4 and WT as the master pool for analysis. These genes were used for comparison between chemical treatments by AVG and the exemplary invention compounds. The finalized 276 genes that are co-regulated by AVG and all of the exemplary invention compounds are shown. Locus ID also present in Nemhauser et al. (Nemhauser, et al. (2006) Cell 126, 467-475).
smiles,measurement,value
CC1(C)CC(=O)c2cnc(NC3CCCC3)nc2C1 [Compound 9393],"Signal Fold Change AT3G14850, unknown biological function",0.29
same,Signal Fold Change AT3G15890 protein kinase,1.98
same,Signal Fold Change AT3G16450 jacalin lectin protein,2.09
same,Signal Fold Change AT3G16470 jacalin lectin protein,4.09
same,"Signal Fold Change AT3G16690, unknown biological function",3.33
same,"Signal Fold Change AT3G17680, unknown biological function",0.33
same,Signal Fold Change AT3G20130 cytochrome P450,1.72
same,Signal Fold Change AT3G21770 peroxidase 30,1.57
same,Signal Fold Change AT3G22620 lipid transfer protein,1.94
same,"Signal Fold Change AT3G23150 ethylene receptor, putative (ETR2)",0.15
same,"Signal Fold Change AT3G23800, unknown biological function",0.46
same,"Signal Fold Change AT3G24670, unknown biological function",0.32
same,Signal Fold Change AT3G25710 bHLH protein,2.27
same,Signal Fold Change AT3G25730 AP2-containing transcription factor,0.26
same,Signal Fold Change AT3G25980 mitotic spindle checkpoint protein,2.35
same,Signal Fold Change AT3G27580 protein kinase,0.48
same,"Signal Fold Change AT3G28290, unknown biological function",0.29
same,Signal Fold Change AT3G29250 short-chain dehydrogenase,4.05
same,"Signal Fold Change AT3G30775 proline oxidase, mitochondrial",2.13
same,Signal Fold Change AT3G43270 pectinesterase protein,0.26
same,"Signal Fold Change AT3G44820, response to light stimulus, phototropic-responsive NPH3 protein",2.81
same,Signal Fold Change AT3G44990 endo-xyloglucan transferase,0.28
same,Signal Fold Change AT3G45710 proton-dependent oligopeptide transport (POT) protein,1.98
same,Signal Fold Change AT3G46130 myb transcription factor (MYB48),2.63
same,Signal Fold Change AT3G46700 UDP-glucosyl transferase,3.09
same,"Signal Fold Change AT3G47210, unknown biological function",2.53
same,"Signal Fold Change AT3G47250, unknown biological function",3.68
same,Signal Fold Change AT3G49780 phytosulfokines 3 (PSK3),4.97
same,Signal Fold Change AT3G50660 steroid 22-alpha-hydroxylase,4.32
same,"Signal Fold Change AT3G51410, unknown biological function",0.32
same,"Signal Fold Change AT3G51970, unknown biological function",2.49
same,Signal Fold Change AT3G52180 protein tyrosine phosphatase,0.32
same,Signal Fold Change AT3G52920 expressed protein (defense response),3.09
same,"Signal Fold Change AT3G53540, unknown biological function",0.38
same,"Signal Fold Change AT3G56480, unknown biological function",2.21
same,Signal Fold Change AT3G58710 WRKY transcription factor,2.14
same,"Signal Fold Change AT3G59370, unknown biological function",2.91
same,Signal Fold Change AT3G59710 short-chain dehydrogenase,0.39
same,"Signal Fold Change AT3G59900, unknown biological function",0.43
same,"Signal Fold Change AT3G60520, unknown biological function",0.27
same,Signal Fold Change AT3G61160 shaggy-related protein kinase beta/ASK-beta (ASK2),3.26
same,Signal Fold Change AT4G00730 anthocyaninless2,0.55
same,"Signal Fold Change AT4G01410, unknown biological function",0.40
same,Signal Fold Change AT4G03140 short-chain dehydrogenase,0.41
same,"Signal Fold Change AT4G08300, unknown biological function",3.06
same,Signal Fold Change AT4G09570 calcium-dependent protein kinase,0.36
same,"Signal Fold Change AT4G10910, unknown biological function",4.86
same,Signal Fold Change AT4G11190 disease resistance-responsive protein,5.56
same,Signal Fold Change AT4G11280 ACC synthase 6,1.87
same,Signal Fold Change AT4G11310 cysteine proteinase,8.01
same,"Signal Fold Change AT4G12080, unknown biological function",1.88
same,Signal Fold Change AT4G12410 auxin-responsive protein,2.76
same,Signal Fold Change AT4G12480 lipid transfer protein,0.20
same,"Signal Fold Change AT4G13210, unknown biological function",0.29
same,Signal Fold Change AT4G15550 UDP-glucose:indole-3-acetate beta-D-glucosyltransferase,0.36
same,"Signal Fold Change AT4G15920, unknown biological function",13.52
same,Signal Fold Change AT4G17220 expressed protein (cytoskeleton organization and biogenesis),2.49
same,Signal Fold Change AT4G18340 glycosyl hydrolase,2.57
same,Signal Fold Change AT4G23410 senescence-associated protein,1.97
same,"Signal Fold Change AT4G25780, unknown biological function",9.02
same,Signal Fold Change AT4G26010 peroxidase,0.45
same,"Signal Fold Change AT4G28085, unknown biological function",2.86
same,"Signal Fold Change AT4G31000, unknown biological function",0.55
same,"Signal Fold Change AT4G32920, unknown biological function",2.39
same,"Signal Fold Change AT4G34560, unknown biological function",2.00
same,Signal Fold Change AT4G34760 auxin-responsive protein,0.20
same,Signal Fold Change AT4G35060 copper chaperone,3.14
same,"Signal Fold Change AT4G35150, unknown biological function",0.32
same,"Signal Fold Change AT4G36520, unknown biological function",2.71
same,Signal Fold Change AT4G37220 stress-responsive protein,7.29
same,"Signal Fold Change AT4G38690, signal transduction, 1-phosphatidylinositol",2.55
same,Signal Fold Change AT4G39210 ADP-glucose pyrophosphorylase,0.44
same,Signal Fold Change AT4G39800 inositol-3-phosphate synthase isozyme 1,2.16
same,"Signal Fold Change AT4G39840, unknown biological function",0.37
same,"Signal Fold Change AT5G01210, unknown biological function",0.33
same,"Signal Fold Change AT5G01300, unknown biological function",1.40
same,"Signal Fold Change AT5G02260, cell wall organization and biogenesis, expansin (EXP9)",0.16
same,Signal Fold Change AT5G02540 short-chain dehydrogenase,0.17
same,Signal Fold Change AT5G03160 DNAJ heat shock N-terminal domain-containing protein,1.90
same,"Signal Fold Change AT5G04080, unknown biological function",2.48
same,"Signal Fold Change AT5G05180, unknown biological function",1.79
same,"Signal Fold Change AT5G06200, unknown biological function",1.94
same,"Signal Fold Change AT5G08240, unknown biological function",1.79
same,Signal Fold Change AT5G08260 serine carboxypeptidase S10 protein,0.50
same,Signal Fold Change AT5G08370 alpha-galactosidase,2.77
same,Signal Fold Change AT5G09980 expressed protein (defense response),0.35
same,Signal Fold Change AT5G10720 sensory transduction histidine kinase,0.48
same,"Signal Fold Change AT5G11540, unknown biological function",5.32
same,"Signal Fold Change AT5G12170, response to cadmium ion, expressed protein",0.36
same,Signal Fold Change AT5G13870 endo-xyloglucan transferase,0.27
same,Signal Fold Change AT5G13910 AP2/EREBP-like transcription factor,0.46
same,Signal Fold Change AT5G14780 formate dehydrogenase,0.44
same,Signal Fold Change AT5G14920 gibberellin-regulated protein,0.35
same,"Signal Fold Change AT5G15290, unknown biological function",2.43
same,Signal Fold Change AT5G15530 biotin carboxyl carrier protein 2,0.54
same,Signal Fold Change AT5G15830 bZIP transcription factor protein,3.94
same,"Signal Fold Change AT5G18470, unknown biological function",0.13
same,Signal Fold Change AT5G18670 beta-amylase,0.50
same,"Signal Fold Change AT5G18860, unknown biological function",2.02
same,"Signal Fold Change AT5G18970, unknown biological function",2.49
same,Signal Fold Change AT5G19890 peroxidase,0.13
same,"Signal Fold Change AT5G19930, unknown biological function",1.64
same,Signal Fold Change AT5G20410 monogalactosyldiacylglycerol synthase,2.77
same,"Signal Fold Change AT5G22310, unknown biological function",0.37
same,Signal Fold Change AT5G22860 serine carboxypeptidase S28 protein,2.63
same,"Signal Fold Change AT5G23750, unknown biological function",3.60
same,"Signal Fold Change AT5G24870, unknown biological function",2.16
same,Signal Fold Change AT5G25140 cytochrome P450,4.21
same,Signal Fold Change AT5G25160 zinc finger (C2H2 type) protein,2.60
same,Signal Fold Change AT5G25190 ethylene-responsive element-binding protein,0.32
same,"Signal Fold Change AT5G34940, unknown biological function",0.49
same,"Signal Fold Change AT5G37300, unknown biological function",3.86
same,"Signal Fold Change AT5G38930, unknown biological function",0.33
same,Signal Fold Change AT5G39860 bHLH protein,2.39
same,Signal Fold Change AT5G41900 hydrolase,2.67
same,"Signal Fold Change AT5G44410, unknown biological function",3.37
same,"Signal Fold Change AT5G44580, unknown biological function",0.22
same,Signal Fold Change AT5G46890 lipid transfer protein,3.64
same,"Signal Fold Change AT5G47240, unknown biological function",3.96
same,Signal Fold Change AT5G47330 palmitoyl protein thioesterase protein,2.52
same,Signal Fold Change AT5G47450 major intrinsic protein,2.24
same,"Signal Fold Change AT5G47950, unknown biological function",1.93
same,Signal Fold Change AT5G48490 lipid transfer protein,9.12
same,"Signal Fold Change AT5G48900, unknown biological function",0.55
same,"Signal Fold Change AT5G49900, unknown biological function",2.24
same,Signal Fold Change AT5G50720 ABA-responsive protein (HVA22e),2.52
same,Signal Fold Change AT5G52120 SKP1 interacting partner 3 protein,5.39
same,"Signal Fold Change AT5G53190, unknown biological function",4.35
same,"Signal Fold Change AT5G53830, unknown biological function",0.40
same,"Signal Fold Change AT5G56320, cell wall organization and biogenesis, expansin (EXP14)",3.15
same,"Signal Fold Change AT5G58660, unknown biological function",0.34
same,Signal Fold Change AT5G59540 oxidoreductase,0.44
same,Signal Fold Change AT5G63450 cytochrome P450,6.43
same,Signal Fold Change AT5G63650 serine/threonine protein kinase,0.42
same,Signal Fold Change AT5G65970 seven transmembrane MLO protein,2.60
same,"Signal Fold Change AT5G66310, microtubule-based movement, kinesin motor protein",0.48
same,Signal Fold Change AT5G66400 dehydrin (RAB18),1.09
same,"Signal Fold Change AT5G66440, unknown biological function",0.30
same,Signal Fold Change AT5G66460 (1-4)-beta-mannan endohydrolase,0.51
same,"Signal Fold Change AT5G66780, unknown biological function",0.78
